Reference: US8178708B2, “Lipid derivatives” (Pronova Biopharma Norge AS, priority 2006, dated 2012)

Experiments:
[1] = biological target: T1, ligand binding domain of human RXRα (Homo sapiens, UniProt P19793); assay: GAL4-hRXRα LBD luciferase reporter, transient transfection in COS-1 cells; settings: for Luciferase activation (fold activation) hRXRα: 10 μM, GAL4-hRXRα LBD chimera in COS-1 cells, negative control = 1.00
T1 sequence (P19793 227-458 limits assumed): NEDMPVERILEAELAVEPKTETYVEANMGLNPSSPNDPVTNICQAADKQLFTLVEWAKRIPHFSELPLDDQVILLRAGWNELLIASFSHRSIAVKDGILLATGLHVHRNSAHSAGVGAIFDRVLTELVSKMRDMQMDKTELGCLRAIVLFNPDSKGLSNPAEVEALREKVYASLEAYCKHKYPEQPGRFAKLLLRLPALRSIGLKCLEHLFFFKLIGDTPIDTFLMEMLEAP

[2] = biological target: T2, ligand binding domain of human PPARα (Homo sapiens, UniProt Q07869); assay: GAL4-hPPARα LBD luciferase reporter, transient transfection in COS-1 cells; settings: for Luciferase activation (fold activation) hPPARα: 10 μM, GAL4-hPPARα LBD chimera in COS-1 cells, negative control = 1.00; for PPAR selectivity profile (in words): conclusion from table 1, 10 μM
T2 sequence (Q07869 239-466 limits assumed): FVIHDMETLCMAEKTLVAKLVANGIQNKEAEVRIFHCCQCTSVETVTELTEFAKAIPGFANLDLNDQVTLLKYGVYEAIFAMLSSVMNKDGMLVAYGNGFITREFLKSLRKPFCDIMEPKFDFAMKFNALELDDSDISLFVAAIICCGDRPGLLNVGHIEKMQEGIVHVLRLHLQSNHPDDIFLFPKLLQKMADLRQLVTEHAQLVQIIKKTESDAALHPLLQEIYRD

[3] = biological target: T3, ligand binding domain of human PPARγ (Homo sapiens, UniProt P37231); assay: GAL4-hPPARγ LBD luciferase reporter, transient transfection in COS-1 cells; settings: 10 μM; GAL4-hPPARγ LBD chimera in COS-1 cells; negative control = 1.00
T3 sequence (P37231 238-503 limits assumed): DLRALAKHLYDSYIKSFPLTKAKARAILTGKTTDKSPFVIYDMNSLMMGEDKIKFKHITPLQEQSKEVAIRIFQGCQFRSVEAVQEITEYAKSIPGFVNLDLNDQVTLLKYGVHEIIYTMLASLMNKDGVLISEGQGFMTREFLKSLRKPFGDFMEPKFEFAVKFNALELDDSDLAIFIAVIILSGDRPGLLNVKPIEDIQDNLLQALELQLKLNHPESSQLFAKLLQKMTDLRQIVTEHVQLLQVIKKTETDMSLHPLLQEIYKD

[4] = biological target: T4, ligand binding domain of human PPARδ (Homo sapiens, UniProt Q03181); assay: GAL4-hPPARδ LBD luciferase reporter, transient transfection in COS-1 cells; settings: 10 μM; GAL4-hPPARδ LBD chimera in COS-1 cells; negative control = 1.00
T4 sequence (Q03181 211-439 limits assumed): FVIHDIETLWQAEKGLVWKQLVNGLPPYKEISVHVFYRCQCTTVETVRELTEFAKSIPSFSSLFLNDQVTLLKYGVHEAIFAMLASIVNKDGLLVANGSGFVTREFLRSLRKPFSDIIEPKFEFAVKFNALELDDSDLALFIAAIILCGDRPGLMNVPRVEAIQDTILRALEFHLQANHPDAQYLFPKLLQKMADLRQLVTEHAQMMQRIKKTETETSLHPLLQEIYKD

NF-κB = assay: Inhibition of NF-κB in human monocytic cell lines (U937-3xkB-LUC luciferase assay); format: cell-based; settings: U937-3xkB-LUC cells, NF-κB induced by LPS or human TNF-α; FIG. 1
Procedure: The novel compounds and DHA were solubilized to 12.5 μM in DMSO flushed with argon and stored at −20° C. Dexamethasone 10 μM in DMSO was used as positive control.
U937-3xkB-LUC cells, (Carlsen, J. Immun, 2002), were cultured in RPMI-1640 medium with L-glutamine ([…]), penicillin (50 U/ml), streptomycin ([…]), hygromycin (75 ug/ml), 10% Fetal Bovine Serum at 37° C. and 5% CO2. In the Cells were seeded in 24-well plates wherein 1% Fetal Bovin Serum was added to the medium. NF-κB activity was induced by lipopolysaccharide (LPS) (1 ug/ml) or human TNF-α (10 ng/ml). Cell viability was measured by trypan blue staining.
Luciferase activity was measured by imaging with a IVIS Imaging System from Xenogen Corp., USA. The Luminescence was detected after 1 min. and 5 min after addition of 0.2 mg d-luciferin per. ml cell medium. Number of photons in each well pr. second was calculated using Living Image Software (Xenogen Corp., USA).

Row | SMILES | Luciferase activation (fold activation) hRXRα [1] | Luciferase activation (fold activation) hPPARα [2] | PPAR selectivity profile (in words) [2] | Luciferase activation (fold activation) hPPARγ [3] | Luciferase activation (fold activation) hPPARδ [4] | RXRα ligand activity (in words) ([1]; conclusion from table 1, 10 μM) | Inhibition of the NF-κB pathway (in words) (NF-κB)
1 | CC/C=C\C/C=C\C/C=C\C/C=C\CC/C=C/C=C(\C)C(=O)O [Compound 11, (2E,4E,8Z,11Z,14Z,17Z)-2-methyl-icosa-2,4,8,11,14,17-hexaenoic acid] | 0.84 ± 0.09 fold activation | 6.79 ± 0.21 fold activation | selective PPARα modulators/activators | 1.67 ± 0.11 fold activation | 1.17 ± 00.20 fold activation | – | –
2 | CC/C=C\C/C=C\C/C=C\C/C=C\C/C=C\CCC/C(C)=C/C(=O)O [Compound 4, (2E,7Z,10Z,13Z,16Z,19Z)-3-methyl-docosa-2,7,10,13,16,19-hexaenoic acid] | 0.90 ± 0.08 fold activation | 4.51 ± 0.52 fold activation | selective PPARα modulators/activators | 1.56 ± 0.12 fold activation | 1.28 ± 0.08 fold activation | – | –
3 | CC/C=C\C/C=C\C/C=C\C/C=C\CC/C=C/C=C/C(=O)O [Compound 13, (2E,4E,8Z,11Z,14Z,17Z)-icosa-2,4,8,11,14,17-hexaenoic acid] | 0.81 ± 0.05 fold activation | 4.89 ± 0.31 fold activation | selective PPARα modulators/activators | 1.63 ± 0.06 fold activation | 1.11 ± 0.16 fold activation | – | potent inhibitors of the NF-κB pathway

The next lines start with results.

Row | Luciferase activation (fold activation) hRXRα [1] | Luciferase activation (fold activation) hPPARα [2] | PPAR selectivity profile (in words) [2] | Luciferase activation (fold activation) hPPARγ [3] | Luciferase activation (fold activation) hPPARδ [4] | RXRα ligand activity (in words) ([1]; conclusion from table 1, 10 μM) | SMILES | Inhibition of the NF-κB pathway (in words) (NF-κB)
4 | – | 2.27 ± 0.04 fold activation | – | – | – | – | Cc1cccc(Nc2cc(Cl)nc(SCC(=O)O)n2)c1C [Wy14643, reference compound] | –
5 | 1.57 ± 0.08 fold activation | 8.27 ± 0.81 fold activation | PPAR pan modulators/activators | 4.32 ± 0.29 fold activation | 1.47 ± 0.38 fold activation | RXRα ligand | CC/C=C\C/C=C\C/C=C\C/C=C\CC/C=C/C=C/C(C)=C/C(=O)O [Compound 25, (2E,4E,6E,10Z,13Z,16Z,19Z)-3-methyl-docosa-2,4,6,10,13,16,19-heptaenoic acid] | potent inhibitors of the NF-κB pathway
